Measured values as given in patent US4340543A, “Sulfonium compounds” (Taiho Pharmaceutical Company Limited, priority 1980, dated 1982).

Columns and labels:
[1] = test system: transplantable fibrosarcoma induced by 3-methylcholanthrene; test: Antitumor activity on a 3-methylcholanthrene-induced transplantable tumor (tumor weight, i.v.); type: in vivo, male C57BL/6 mice; conditions: every other day 5 times, day 21
Description: (3) Antitumor activity on a 3-methylcholanthrene-induced transplantable tumor.
Ten male C57BL/6 mice in each group weighing 20-25 g were subcutaneously inoculated with 5×10^4 or 1×10^5 cells of transplantable fibrosarcoma, which was induced in C57BL/6 strain by 3-methylcholanthrene and maintained syngenetically in ascites form. A solution of the compound in physiological saline was injected intravenously at the dose shown in Table 6 below every other day 5 times, starting with the next day of the tumor inoculation. Twenty-one days after the tumor inoculation, mice were sacrificed and tumors were weighed.

[2] = Acute toxicity test (up-down method, i.v.); conditions: mouse, in vivo, iv, male ddy mice
Description: Male ddy mice weighing 20 g were used. A solution of the compound in physiological saline was injected intravenously. The dose lethal to 50% of mice was determined by the up-down method.

[3] = test system: delayed hypersensitivity response; test: Effect on a cell-mediated response (picryl chloride delayed hypersensitivity, ear swelling, oral); type: in vivo, male BALB/C mice; conditions: for Increase relative to control group (ear swelling) / Increase of swelling (× 10^-4): 7 days; for Increase of swelling (× 10^-4): 24 hours after challenge; for effect on the delayed hypersensitivity response (in words): oral, Table 8 doses
Description: (5) Effect on a cell-mediated response
Ten male BALB/C mice in each group, weighing in 20-25 g, were used. Mice were immunized by applying the skin of the clipped abdomen with 0.1 ml of 7% picryl chloride in absolute alcohol on day 0, and challenge was with 0.02 ml of 1% picryl chloride in olive oil applied to the ear on day 7. The ear was measured again 24 hours later by a dial thickness gauge. A solution of the compound in water was orally administered at the dose shown in Table 8 below daily for seven consecutive days starting with day 1.

Meth-A cells = test: Antitumor activity on a syngenic Meth-A tumor (tumor weight, i.v.); type: in vivo, male BALB/C mice; conditions: 7 consecutive days, day 17
Description: (1) Antitumor activity on a syngenic Meth-A tumor.
(§1) Ten male BALB/C mice in each group, weighing 25-30 g, were subcutaneously inoculated with 2×10^4 Meth-A cells. A solution of the compound in physiological saline was injected intravenously at the dose shown in Table 4 below once a day for consecutive 7 days starting with the next day of the tumor inoculation. Seventeen days after the tumor inoculation, mice were sacrificed, and tumors were weighed.
Growth inhibition was assessed, tumor weight in the treated mice divided by tumor weight in the control mice.

sarcoma 180 cells = test: Antitumor activity on sarcoma 180 (tumor weight, i.v.); type: in vivo, male ICR mice; conditions: 10 consecutive days, day 17
Description: (2) antitumor activity on sarcoma 180
as §1, with “ICR” for “BALB/C”, “30-35” for “25-30”, “5×10^5 sarcoma 180” for “2×10^4 Meth-A”, “5” for “4”, “for 10” for “for”, “consecutive” for “consecutive 7”

[4] = test system: spleen hemolytic plaque forming cells; test: Effect on humoral response (hemolytic plaque forming cells, sheep red blood cells, i.p.); type: in vivo, male BALB/C mice; conditions: for Increase (hemolytic plaque forming cells vs saline control) / Cell count/spleen (hemolytic plaque forming cells): day 0 to 4; for Cell count/spleen (hemolytic plaque forming cells): counted day 5
Description: (4) Effect on humoral response
Ten male BALB/C mice in each group, weighing 25-30 g, were intravenously injected with 1×10^7 sheep red blood cells on day 0. A solution of the compound in physiological saline was injected intraperitoneally at the dose shown in Table 7 below from day 0 to day 4.
On day 5, spleen hemolytic plaque forming cells were counted by the technique of Jerne et al (Science, 140, 405, 1963) modified by Cunningham et al (Immunology, 14, 599, 1968).

[5] = 3 mg/kg/day i.v., cell count 1 × 10^5

In the case of `CCCC[S+](C)CC1CCCO1` (centres unmarked) [Compound 12], the “Inhibition (fibrosarcoma growth)” value [1, 5] is reported as 44.3% and the LD50 [2] is reported as 90 mg/kg.

With `C[S+](C)CCC1CCCO1` (centres unmarked) [Compound 29, ethylene(tetrahydro-2-furanyl)dimethylsulfonium p-toluenesulfonate] the “Increase relative to control group (ear swelling)” value (shortened to “Increase relative to control group”) ([3]; 20 mg/kg/day oral) was 26.0%, the “Increase of swelling (× 10^-4)” value ([3]; 20 mg/kg/day oral) was 44.8 ± 9.5 × 10^-4 and the “Increase relative to control group” value ([3]; 100 mg/kg/day oral) was 35.3%. For the same compound, the “Increase of swelling (× 10^-4)” value ([3]; 100 mg/kg/day oral) was 47.9 ± 13.2 × 10^-4, the “Increase relative to control group” value ([3]; 500 mg/kg/day oral) was -11.6% and the “Increase of swelling (× 10^-4)” value ([3]; 500 mg/kg/day oral) was 31.3 ± 13.5 × 10^-4. The “effect on the delayed hypersensitivity response (in words)” value [3] was “augment the delayed hypersensitivity response”, the “Inhibition (fibrosarcoma growth)” value [1, 5] was 66.7% and the LD50 [2] was 131 mg/kg. For the same compound, the “Inhibition (Meth-A tumor growth)” value (Meth-A cells; 0.4 mg/kg/day i.v.) was 60.7%, the “Inhibition (Meth-A tumor growth)” value (Meth-A cells; 2.0 mg/kg/day i.v.) was 69.8% and the “Inhibition (Meth-A tumor growth)” value (Meth-A cells; 10.0 mg/kg/day i.v.) was 39.6%.

For `C[S+](CCOC(=O)c1ccccc1)CC1CCCO1` (centres unmarked) [Compound 27], the “Inhibition (sarcoma 180 growth)” value (sarcoma 180 cells; 0.4 mg/kg/day i.v.) was 75.7% and the LD50 [2] was 94 mg/kg.

For `C[S+](C)CCC1CCCCO1` (centres unmarked) [Compound 58], the LD50 [2] was 80 mg/kg and the “Inhibition (Meth-A tumor growth)” value (Meth-A cells; 2.0 mg/kg/day i.v.) was 49.2%.

In the case of `C[S+](C)CC1CCCO1` (centres unmarked) [Compound 1, methylene(tetrahydro-2-furanyl)dimethylsulfonium p-toluenesulfonate], the “Increase relative to control group” value ([3]; 20 mg/kg/day oral) is reported as -3.4%, the “Increase of swelling (× 10^-4)” value ([3]; 20 mg/kg/day oral) is reported as 34.2 ± 6.0 × 10^-4 and the “Increase relative to control group” value ([3]; 100 mg/kg/day oral) is reported as 43.5%. For the same compound, the “Increase of swelling (× 10^-4)” value ([3]; 100 mg/kg/day oral) was 50.8 ± 13.4 × 10^-4, the “Increase relative to control group” value ([3]; 500 mg/kg/day oral) was 11.0% and the “Increase of swelling (× 10^-4)” value ([3]; 500 mg/kg/day oral) was 39.3 ± 9.8 × 10^-4. The “effect on the delayed hypersensitivity response (in words)” value [3] was “augment the delayed hypersensitivity response”, the “Increase (hemolytic plaque forming cells vs saline control)” value ([4]; 2.5 mg/kg/day i.p.) was 52.6% and the “Cell count/spleen (hemolytic plaque forming cells)” value (from here on “Cell count/spleen”) ([4]; 2.5 mg/kg/day i.p.) was 322 ± 75.2. The “Increase (hemolytic plaque forming cells vs saline control)” value ([4]; 10 mg/kg/day i.p.) was 35.1%, the “Cell count/spleen” value ([4]; 10 mg/kg/day i.p.) was 285 ± 113.5 and the “Increase (hemolytic plaque forming cells vs saline control)” value ([4]; 40 mg/kg/day i.p.) was 85.8%. For the same compound, the “Cell count/spleen” value ([4]; 40 mg/kg/day i.p.) was 392 ± 91.4, the “increase in the number of hemolytic plaque forming cells (in words)” value ([4]; at the doses of 2.5 mg/kg and 40 mg/kg, i.p.) was “significant increases” and the “Inhibition (fibrosarcoma growth)” value ([1]; 10 mg/kg/day i.v., cell count 5 × 10^4) was 71.5%. For the same compound, the “Inhibition (sarcoma 180 growth)” value (sarcoma 180 cells; 0.8 mg/kg/day i.v.) was 66.4%, the LD50 [2] was 130 mg/kg and the “Inhibition (Meth-A tumor growth)” value (Meth-A cells; 0.8 mg/kg/day i.v.) was 39.9%. The “Inhibition (Meth-A tumor growth)” value (Meth-A cells; 4.0 mg/kg/day i.v.) was 63.9%.

With `C[S+](C)CCCC1CCCO1` (centres unmarked) [Compound 46] the LD50 [2] was 13.2 mg/kg and the “Inhibition (Meth-A tumor growth)” value (Meth-A cells; 0.2 mg/kg/day i.v.) was 58.1%.

In the case of `C[S+](C)CC1CCCCO1` (centres unmarked) [Compound 50, methylene(tetrahydro-2-pyranyl)dimethylsulfonium p-toluenesulfonate], the “Inhibition (sarcoma 180 growth)” value (sarcoma 180 cells; 3.0 mg/kg/day i.v.) is reported as 73.3% and the LD50 [2] is reported as 135 mg/kg.
